Data as given in patent publication US20010056085A1, “Methods of using vesicant drug formulations” (priority 1996, published 2001).
“Also recorded” adds a separate entry of the source.

Assays:
P388 cells = experiment: In vitro cell culture assay: growth inhibitory effect of UVA-irradiated DOX solutions; type: cell-based, murine
Description: Cell culture was carried out as previously described (Ramu et al. [1984] Cancer Res., 44:144). Briefly, P388 murine leukemia cells (i.e., P388D1 available from the ATCC; […] An inoculum of cells was transferred to fresh medium once every 4 days to maintain exponential growth. […] Drug solutions (0.2 ml/well) in 24 well culture clusters without the lid were irradiated in a laminar flow hood with 3 Blacklight Blue 40 W lamps (Vilber Lourmat, Marne la Vallee, France).

[1] = Effect of UVA irradiation on the absorbance spectrum of DOX (350-600 nm; KDOX at 480 nm); type: physicochemical; conditions: for photoenhancing effect on riboflavin-mediated UVA destruction of DOX (absorbance at 480 nm): 100 μM compound, 0.5 μM riboflavin in PBS without Ca2+ and Mg2+, 0 to 20 minutes UVA
[2] = Half-life of ADR destruction by UVA light in the presence of test compounds (decrease in absorbance at 480 nm); type: physicochemical; conditions: UVA light; for Half-Life of ADR Destruction, 100 μM Test Compound and 0.5 μM Riboflavin: 100 μM test compound with 0.5 μM riboflavin; for Half-Life of ADR Destruction, 100 μM Test Compound: 100 μM test compound alone
[3] = system: P388 cells and P388/ADR cells; experiment: Catalase protection of cells from UVA irradiation; type: cell-based, murine; conditions: 0.01 to 100 U/ml catalase in PBS or RPMI 1640
[4] = system: P388 or P388/ADR cell lines; experiment: Effect of catalase on the growth inhibitory effect of DOX; type: cell-based, murine; conditions: 30 U/ml catalase

Row | Compound | Half-Life of ADR Destruction, 100 μM Test Compound and 0.5 μM Riboflavin [2] | Half-Life of ADR Destruction, 100 μM Test Compound [2] | other results
1 | Cc1cc2nc3c(=O)[nH]c(=O)nc-3n(C[C@H](O)[C@H](O)[C@H](O)COP(=O)(O)O)c2cc1C [FMN, flavin mononucleotide] |  |  | effectiveness relative to FAD in mediating UVA obliteration of the DOX growth inhibitory effect (P388 cells; 0.3 μM DOX in PBS, 8 min UVA): 5 fold
2 | CSCC[C@H](N)C(=O)O [Methionine] |  |  | photoenhancing effect on riboflavin-mediated UVA destruction of DOX (absorbance at 480 nm) ([1]; 20 μM DOX): enhanced
3 | O=C(O)CN(CCN(CC(=O)O)CC(=O)O)CC(=O)O [EDTA, ethylenediaminetetraacetic acid] |  |  | photoenhancing effect on riboflavin-mediated UVA destruction of DOX (absorbance at 480 nm) ([1]; 20 μM DOX): enhanced
4 | O=S(=O)(O)CCN1CCN(CCO)CC1 [HEPES, N-2-hydroxyethylpiperazine-N′-2-ethanesulfonic acid] |  |  | effect on riboflavin-mediated photoinactivation of DOX ([1]; 5 mM HEPES, 20 μM DOX, riboflavin in PBS): accelerate the riboflavin-mediated photoinactivation of DOX
5 | O=C1O[C@H]([C@@H](O)CO)C(O)=C1O [ascorbate, ascorbic acid] |  |  | effect on the UVA-induced decrease of DOX absorbance ([1]; 0.16 mM ascorbate, 20 μM DOX in RPMI medium 1640): this decrease was smaller; effect on the UVA-induced decrease of DOX absorbance ([1]; 1.6 mM ascorbate, 20 μM DOX in RPMI medium 1640, 20 minutes of irradiation): no changes in the absorbance spectrum of DOX
6 | N[C@@H](Cc1c[nH]cn1)C(=O)O [Histidine] | 55.2 ± 7.1 min |  | photoenhancing effect on riboflavin-mediated UVA destruction of DOX (absorbance at 480 nm) ([1]; 20 μM DOX): enhanced
7 | N[C@@H](Cc1ccc(O)cc1)C(=O)O [4-Hydroxy Phenylalanine (Tyrosine), 4-Hydroxy Phenylalanine] |  |  | photoenhancing effect on riboflavin-mediated UVA destruction of DOX (absorbance at 480 nm) ([1]; 20 μM DOX): enhanced; also recorded: greatest photenhancing effect; effect on the absorbance spectrum of DOX under UVA without riboflavin ([1]; 100 μM tyrosine, 20 μM DOX in PBS pH 7.2): essentially no impact on the absorbance spectrum of DOX
8 | catalase |  |  | effect on the rate of destruction of DOX by UVA irradiation ([1]; 150 units/ml catalase, 20 μM DOX in RPMI medium 1640): did not affect the rate of destruction of DOX; protection of cells from damage (inhibition of growth) by protracted UVA irradiation [3]: protected the cells from damage; interference with the growth inhibitory effect of DOX [4]: does not interfere with the growth inhibitory effect of DOX
9 | N[C@@H](Cc1ccccc1)C(=O)O [Phenylalanine] | 75.3 min |  | photoenhancing effect on riboflavin-mediated UVA destruction of DOX (absorbance at 480 nm) ([1]; 20 μM DOX): did not enhance
10 | COc1cccc2c1C(=O)c1c(O)c3c(c(O)c1C2=O)C[C@@](O)(C(=O)CO)C[C@@H]3O[C@H]1C[C@H](N)[C@H](O)[C@H](C)O1.Cl [DOX, Doxorubicin HCl, reference compound] |  |  | first order rate constant of the decrease in DOX absorbance (KDOX) ([1]; 20 μM DOX in RPMI medium 1640 without phenol red, 50 mM HEPES pH 7.2, UVA): 0.000417 s⁻¹; UVA irradiation required to destroy the DOX absorbance spectrum ([1]; 20 μM DOX, 2 μM riboflavin and 5 nM DABCO (FIG. 12)): 20 min; UVA irradiation required to eliminate the DOX absorbance spectrum ([1]; 20 μM DOX, 20 μM riboflavin, 5 mM DABCO in PBS (FIG. 13B)): less than 2 minutes; time in which the DOX absorbance spectrum disappeared ([1]; 20 μM DOX, 20 μM riboflavin, 5 mM DABCO, PBS without Ca2+ and Mg2+ (FIG. 13C)): less than 1 minute
11 | NC(Cc1c[nH]c2ccccc12)C(=O)O (stereo not drawn) [α-Amino-Indole-3-propionic acid] |  |  | photoenhancing effect on riboflavin-mediated UVA destruction of DOX (absorbance at 480 nm) ([1]; 20 μM DOX): enhanced; effect on destruction of DOX in a riboflavin formulation by UVA irradiation ([1]; 100 μM tryptophan, 20 μM DOX, 0.5 μM riboflavin in PBS): enhanced
12 | superoxide dismutase |  |  | effect on DOX inactivation by riboflavin or riboflavin-tyrosine and UVA ([1]; 300 U/ml SOD, 20 μM DOX in PBS): accelerates the rate at which DOX is inactivated
13 | Cc1cc2nc3c(=O)[nH]c(=O)nc-3n(C[C@H](O)[C@H](O)[C@H](O)COP(=O)(O)OP(=O)(O)OC[C@H]3O[C@@H](n4cnc5c(N)ncnc54)[C@H](O)[C@@H]3O)c2cc1C [FAD, flavin adenine dinucleotide] |  |  | effectiveness in mediating the UVA inactivation of DOX compared with riboflavin ([1]; in the presence or absence of DABCO): not as effective as riboflavin; raise of concentration needed to obtain an effect comparable to riboflavin or FMN (P388 cells; UVA effect on DOX): 5 fold
14 | COc1[nH]c2ccccc2c1CN(C)C [2-Methoxy-3-(dimethylaminomethyl) indole] | 13.7 min | 75.3 min | 
15 | CC(=O)c1ccccc1O [2′-Hydroxyacetophenone] | 43.0 min | 50.2 min | 
16 | Nc1cccc(C(=O)O)c1 [3-Amino Benzoic Acid] | 16.7 min |  | 
17 | COc1ccc(C(=O)c2cccs2)cc1 [2-(4-Methoxybenzoyl)-thiophene] | 8.36 min | 9.41 min | 
18 | CCCCCCc1ccc(N)cc1 [4-Hexyl Aniline] | 5.28 min |  | 
19 | Cc1cc2ccccc2[nH]1 [2-Methyl Indole] | 7.00 min |  | 
20 | COc1ccccc1O [2-Methoxy Phenol] | 50.2 min | 50.2 min | 
21 | COc1ccc(C=CCO)cc1 [4-Methoxy Cinnamyl Alcohol] | 9.12 min | 50.2 min | 
22 | O=C(O)CCOc1ccc(-c2ccccc2)cc1 [3-(4-Biphenylyloxy) Propionic Acid] | 43.0 min | 43.0 min | 
23 | O=C(O)c1ccc[nH]1 [Pyrrole-2-carboxylic acid] | 23.2 min |  | 
24 | Cc1cc(CC(=O)O)n(C)c1C(=O)c1ccc(Cl)cc1 [Zomepirac, 5-(4-Chlorobenzoyl)-1,4-dimethyl-pyrrole-2-acetic acid, reference compound] | 20.1 min | 42.0 min | Half-Life of ADR Destruction, 100 μM Test Compound ([2]; listed as 5-(4-Chlorobenzoyl)-1,4-dimethyl-pyrrole-2-acetic acid (Zomepirac)): 43.0 min
25 | COc1ccc(C(=O)c2cccc(C(=O)O)c2)cc1OC [3′,4′-Dimethoxy-3-benzophenonecarboxylic acid] | 43.0 min | 50.2 min | 
26 | COc1ccccc1C=CC=O [2-Methoxy Cinnamaldehyde] | 50.2 min |  | 
